Structures can show the parent of a compound that is named as a salt. Where two headings read alike, the source gives them in different places.
What was measured:
[1] = molecular target: His-GST-TVMV-hRIPK1(1-324) (Homo sapiens (Human), UniProt Q13546); experiment: RIPK1 HTRF Binding Assay; details: HTRF binding, 1 h at rt, read-out: RIPK1 (IC50)
In short: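 HTRF probe-displacement binding: 1 nM His-GST-TVMV-hRIPK1(1-324) (baculovirus construct), 90.6 nM probe, 0.2 nM anti-GST-Tb in 20 mM HEPES, 10 mM MgCl2, 0.015% Brij-35, 4 mM DTT, 0.05 mg/mL BSA. Incubated 1 h at rt; FRET 520/495 nm ratio, inhibition relative to DMSO-only wells.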

[2] = system: MLKL phosphorylation in HT29-L23 human colorectal adenocarcinoma cells; experiment: MLKL Phosphorylation High-Content Assay; type: cell-based; details: 6 h, necroptosis induced with TNFα, SMAC mimetic and Z-VAD, read-out: pMLKL (IC50)
In short: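 HT29-L23 cells pretreated 30 min at 37 °C with compound (6.25 to 0.106 μM final), then necroptosis induced with TNFα 35 ng/mL, SMAC mimetic 700 nM and Z-VAD 140 nM for 6 h. Fixed cells immunostained for MLKL pS358 and imaged; IC50 and Ymax from 4-parameter logistic fit.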

Chain of His-GST-TVMV-hRIPK1(1-324) (Q13546 1-324): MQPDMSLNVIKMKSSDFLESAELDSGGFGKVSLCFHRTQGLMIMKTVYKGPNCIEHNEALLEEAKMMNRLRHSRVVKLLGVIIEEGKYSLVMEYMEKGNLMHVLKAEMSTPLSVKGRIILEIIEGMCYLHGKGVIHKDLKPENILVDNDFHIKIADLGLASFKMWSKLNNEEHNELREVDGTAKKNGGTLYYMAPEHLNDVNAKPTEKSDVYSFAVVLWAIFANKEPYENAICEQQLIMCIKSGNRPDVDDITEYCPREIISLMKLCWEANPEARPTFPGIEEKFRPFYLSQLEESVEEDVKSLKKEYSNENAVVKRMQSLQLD

What does the source list for `COc1ncc(-c2ccc3nc(NC(C)=O)cn3n2)cc1C(=O)NCc1cc(F)cc(F)c1OC1CC1` [Example 118, N-[(2-cyclopropoxy-3,5-difluorophenyl)methyl]-5-{2-acetamidoimidazo[1,2-b]pyridazin-6-yl}-2-methoxypyridine-3-carboxamide]?
IC50 [1]: 2 nM; IC50 ([2]; Homo sapiens): 28 nM

`COc1ncc(-c2ccc3nc(NC(C)=O)cn3n2)cc1C(=O)NCC[C@H](O)c1ccc(Cl)cc1` [Example 119, N-[(3S)-3-(4-chlorophenyl)-3-hydroxypropyl]-5-{2-acetamidoimidazo[1,2-b]pyridazin-6-yl}-2-methoxypyridine-3-carboxamide] was tested. Which IC50 [1] did it give?
Its IC50 is 116 nM.

And the IC50 ([2]; Homo sapiens)?
Its IC50 is 94 nM.

What does the source list for `COc1ncc(-c2ccc3nc(NC(C)=O)cn3n2)cc1C(=O)NCc1ccc(F)cc1OC(F)(F)F` [Example 120, 5-{2-acetamidoimidazo[1,2-b]pyridazin-6-yl}-N-{[4-fluoro-2-(trifluoromethoxy)phenyl]methyl}-2-methoxypyridine-3-carboxamide]?
IC50 [1]: 170 nM; IC50 ([2]; Homo sapiens): 383 nM

`COc1ncc(-c2ccc3nc(NC(C)=O)cn3n2)cc1C(=O)NCc1cc(F)cc(F)c1OCC1CC1` [Example 121, N-({2-[cyclopropyl(deutero)methoxy]-3,5-difluorophenyl}methyl)-5-{2-acetamidoimidazo[1,2-b]pyridazin-6-yl}-2-methoxypyridine-3-carboxamide] was tested. Which IC50 [1] did it give?
The IC50 was 3 nM.

What about the IC50 [2] of the same compound?
The IC50 was 9 nM.

With `COc1ncc(-c2ccc3nc(NC(C)=O)cn3n2)cc1C(=O)NC(C)c1c(F)cccc1OCC1CC1` (stereo not shown) [Example 122, N-{1-[2-(cyclopropylmethoxy)-6-fluorophenyl]ethyl}-5-{2-acetamidoimidazo[1,2-b]pyridazin-6-yl}-2-methoxypyridine-3-carboxamide, TFA] as the compound, how does the IC50 ([1]; TFA) read?
Its IC50 is 5 nM.

And the IC50 ([2]; TFA)?
Its IC50 is 15 nM.

Which results are given for `COc1ncc(-c2ccc3nc(NC(C)=O)cn3n2)cc1C(=O)NC(C)c1cccc(OC(F)(F)F)c1` (stereo not shown) [Example 123, 5-{2-acetamidoimidazo[1,2-b]pyridazin-6-yl}-2-methoxy-N-{1-[3-(trifluoro-methoxy)phenyl]ethyl}pyridine-3-carboxamide]?
IC50 [1]: 37 nM; IC50 ([2]; Homo sapiens): 218 nM

Which IC50 ([1]; TFA) does the source give for `COc1ncc(-c2ccc3nc(NC(C)=O)cn3n2)cc1C(=O)NC(C)c1c(F)cccc1OCC1CC1` (stereo not shown) [Example 124, N-{1-[2-(cyclopropylmethoxy)-6-fluorophenyl]ethyl}-5-{2-acetamidoimidazo[1,2-b]pyridazin-6-yl}-2-methoxypyridine-3-carboxamide, TFA] here?
The IC50 was 6 nM.

And the IC50 ([2]; TFA)?
The IC50 was 14 nM.

How did the IC50 [1] turn out when `COc1ncc(-c2ccc3nc(NC(C)=O)cn3n2)cc1C(=O)NC(C)c1cccc(OC(F)(F)F)c1` (stereo not shown) [Example 125, 5-{2-acetamidoimidazo[1,2-b]pyridazin-6-yl}-2-methoxy-N-{1-[3-(trifluoro-methoxy)phenyl]ethyl}pyridine-3-carboxamide] was run?
The IC50 was 34 nM.

And the IC50 [2]?
The IC50 was 153 nM.

What does the source list for `COc1ncc(-c2ccc3nc(NC(C)=O)cn3n2)cc1C(=O)NCc1cccc(OC(F)(F)F)c1` [Example 126, 5-{2-acetamidoimidazo[1,2-b]pyridazin-6-yl}-2-methoxy-N-{[3-(trifluoro-methoxy)phenyl]methyl}pyridine-3-carboxamide]?
IC50 [1]: 73 nM; IC50 ([2]; Homo sapiens): 78 nM

How did the IC50 [1] turn out when `COc1ncc(-c2ccc3nc(NC(C)=O)cn3n2)cc1C(=O)NCc1c(F)ccc(F)c1OCC1CC1` [Example 127, N-{[2-(cyclopropylmethoxy)-3,6-difluorophenyl]methyl}-5-{2-acetamidoimidazo[1,2-b]pyridazin-6-yl}-2-methoxypyridine-3-carboxamide] was run?
Its IC50 is 4 nM.

And the IC50 ([2]; Homo sapiens)?
The IC50 was 33 nM.

With `COc1ncc(-c2ccc3nc(NC(C)=O)cn3n2)cc1C(=O)NCc1c(F)cccc1OC1CCOCC1` [Example 128, 5-{2-acetamidoimidazo[1,2-b]pyridazin-6-yl}-N-{[2-fluoro-6-(oxan-4-yloxy)phenyl]methyl}-2-methoxypyridine-3-carboxamide, TFA] as the compound, how does the IC50 [1] read?
Its IC50 is 9 nM.

What about the IC50 [2] of the same compound?
The IC50 was 64 nM.

What does the source list for `COc1ncc(-c2ccc3nc(NC(C)=O)cn3n2)cc1C(=O)NCc1cc(F)cc(F)c1OC1CCOCC1` [Example 129, N-{[3,5-difluoro-2-(oxan-4-yloxy)phenyl]methyl}-5-{2-acetamidoimidazo[1,2-b]pyridazin-6-yl}-2-methoxypyridine-3-carboxamide, TFA]?
IC50 [1]: 1 nM; IC50 [2]: 2 nM

For `COc1ncc(-c2ccc3nc(NC(C)=O)cn3n2)cc1C(=O)NC(C)c1cc(F)cc(F)c1OCC1CC1` (stereo not shown) [Example 130, N-{1-[2-(cyclopropylmethoxy)-3,5-difluorophenyl]ethyl}-5-{2-acetamidoimidazo[1,2-b]pyridazin-6-yl}-2-methoxypyridine-3-carboxamide], which IC50 [1] is on record?
Its IC50 is 4 nM.

What about the IC50 [2] of the same compound?
Its IC50 is 3 nM.

Which IC50 [1] does the source give for `COc1ncc(-c2ccc3nc(NC(C)=O)cn3n2)cc1C(=O)NCc1ccc(F)c(F)c1OC(C)C1CC1` (stereo not shown) [Example 131, N-{[2-(1-cyclopropylethoxy)-3,4-difluorophenyl]methyl}-5-{2-acetamidoimidazo[1,2-b]pyridazin-6-yl}-2-methoxypyridine-3-carboxamide] here?
The IC50 was 79 nM.

And the IC50 [2]?
Its IC50 is 481 nM.

Which results are given for `COc1ncc(-c2ccc3nc(NC(C)=O)cn3n2)cc1C(=O)NCc1ccc(F)c(F)c1OC(C)C1CC1` (stereo not shown) [Example 132, N-{[2-(1-cyclopropylethoxy)-3,4-difluorophenyl]methyl}-5-{2-acetamidoimidazo[1,2-b]pyridazin-6-yl}-2-methoxypyridine-3-carboxamide]?
IC50 [1]: 10 nM; IC50 [2]: 64 nM

`COc1ncc(-c2ccc3nc(NC(C)=O)cn3n2)cc1C(=O)NC(C)c1cc(F)cc(F)c1OCC1CC1` (stereo not shown) [Example 133, N-{1-[2-(cyclopropylmethoxy)-3,5-difluorophenyl]ethyl}-5-{2-acetamidoimidazo[1,2-b]pyridazin-6-yl}-2-methoxypyridine-3-carboxamide] was tested. Which IC50 [1] did it give?
The IC50 was 23 nM.

What about the IC50 [2] of the same compound?
Its IC50 is 8 nM.

`COc1ncc(-c2ccc3nc(NC(C)=O)cn3n2)cc1C(=O)NCc1cccc(F)c1OC(C)C1CC1` (stereo not shown) [Example 134, N-{[2-(1-cyclopropylethoxy)-3-fluorophenyl]methyl}-5-{2-acetamidoimidazo[1,2-b]pyridazin-6-yl}-2-methoxypyridine-3-carboxamide] was tested. Which IC50 [1] did it give?
Its IC50 is 18 nM.

And the IC50 [2]?
The IC50 was 28 nM.

With `COc1ncc(-c2ccc3nc(NC(C)=O)cn3n2)cc1C(=O)NCc1cccc(F)c1OC(C)C1CC1` (stereo not shown) [Example 135, N-{[2-(1-cyclopropylethoxy)-3-fluorophenyl]methyl}-5-{2-acetamidoimidazo[1,2-b]pyridazin-6-yl}-2-methoxypyridine-3-carboxamide] as the compound, how does the IC50 [1] read?
The IC50 was 3 nM.

And the IC50 [2]?
The IC50 was 7 nM.

`COc1ncc(-c2ccc3nc(NC(C)=O)cn3n2)cc1C(=O)NCc1ncccc1OC(C)C1CC1` (stereo not shown) [Example 136, N-{[3-(1-cyclopropylethoxy)pyridin-2-yl]methyl}-5-{2-acetamidoimidazo[1,2-b]pyridazin-6-yl}-2-methoxypyridine-3-carboxamide] was tested. Which IC50 [1] did it give?
The IC50 was 17 nM.

And the IC50 ([2]; Homo sapiens)?
The IC50 was 100 nM.

Which IC50 [1] does the source give for `COc1ncc(-c2ccc3nc(NC(C)=O)cn3n2)cc1C(=O)NC(C)c1ccccc1OC(F)(F)F` (stereo not shown) [Example 137, 5-{2-acetamidoimidazo[1,2-b]pyridazin-6-yl}-2-methoxy-N-{1-[2-(trifluoro-methoxy)phenyl]ethyl}pyridine-3-carboxamide] here?
The IC50 was 7 nM.

And the IC50 ([2]; Homo sapiens)?
Its IC50 is 14 nM.

With `COc1ncc(-c2ccc3nc(NC(C)=O)cn3n2)cc1C(=O)NCc1cc(F)cc(OC(F)(F)F)c1` [Example 138, 5-{2-acetamidoimidazo[1,2-b]pyridazin-6-yl}-N-{[3-fluoro-5-(trifluoromethoxy)phenyl]methyl}-2-methoxypyridine-3-carboxamide] as the compound, how does the IC50 [1] read?
Its IC50 is 13 nM.

And the IC50 ([2]; Homo sapiens)?
The IC50 was 72 nM.

What does the source list for `COc1ncc(-c2ccc3nc(NC(C)=O)cn3n2)cc1C(=O)NC(C)c1ccccc1OC(F)(F)F` (stereo not shown) [Example 139, 5-{2-acetamidoimidazo[1,2-b]pyridazin-6-yl}-2-methoxy-N-{1-[2-(trifluoro-methoxy)phenyl]ethyl}pyridine-3-carboxamide]?
IC50 [1]: 15 nM; IC50 [2]: 25 nM

`COc1ncc(-c2ccc3nc(NC(C)=O)cn3n2)cc1C(=O)NCc1cc(F)cc(OCC2CC2)c1` [Example 140, N-{[3-(cyclopropylmethoxy)-5-fluorophenyl]methyl}-5-{2-acetamidoimidazo[1,2-b]pyridazin-6-yl}-2-methoxypyridine-3-carboxamide] was tested. Which IC50 [1] did it give?
The IC50 was 17 nM.

What about the IC50 ([2]; Homo sapiens) of the same compound?
Its IC50 is 77 nM.

`COc1ncc(-c2ccc3nc(NC(C)=O)cn3n2)cc1C(=O)NCc1c(F)ccc(F)c1OC` [Example 141, N-[(3,6-difluoro-2-methoxyphenyl)methyl]-5-{2-acetamidoimidazo[1,2-b]pyridazin-6-yl}-2-methoxypyridine-3-carboxamide] was tested. Which IC50 [1] did it give?
The IC50 was 97 nM.

What about the IC50 ([2]; Homo sapiens) of the same compound?
Its IC50 is 256 nM.

Which results are given for `COc1ncc(-c2ccc3nc(NC(C)=O)cn3n2)cc1C(=O)NCc1ccc(F)c(OCC2CC2)c1` [Example 142, N-{[3-(cyclopropylmethoxy)-4-fluorophenyl]methyl}-5-{2-acetamidoimidazo[1,2-b]pyridazin-6-yl}-2-methoxypyridine-3-carboxamide]?
IC50 [1]: 29 nM; IC50 ([2]; Homo sapiens): 181 nM

What does the source list for `COc1ncc(-c2ccc3nc(NC(C)=O)cn3n2)cc1C(=O)N(C)Cc1cccc(OC(F)(F)F)c1` [Example 143, 5-{2-acetamidoimidazo[1,2-b]pyridazin-6-yl}-2-methoxy-N-methyl-N-{[3-(trifluoromethoxy)phenyl]meth-yl}pyridine-3-carboxamide]?
IC50 [1]: 8 nM; IC50 ([2]; Homo sapiens): 4 nM

— patent US11440913B2, “Aminoimidazopyridazines as kinase inhibitors” (BRISTOL-MYERS SQUIBB COMPANY, priority 2017, dated 2022)
